Measurements published in patent US8816065B2, “Pharmaceutical or cosmetic composition containing nicotinic acid adenine dinucleotide phosphate or derivative thereof” (Damy Chemical Co., Ltd., priority 2010, dated 2014).

Columns and labels:
[1] = tested on: Epidermal keratinocyte neonatal (NHEK-Np); test: Increase in intracellular calcium in cultured keratinocytes (fluo-3 AM, confocal microscopy); assay type: cell-based, human
Procedure: In the present example, an efficacy in inducing an increase in intracellular calcium was evaluated when cultured keratinocytes were treated with NAADP in order to confirm an effect of recovering a skin barrier in the composition of the present invention.
Epidermal keratinocyte neonatal (NHEK-Np, CC-2507, Lonza Co. Ltd.) was treated with fluo-3 AM (Molecular Probe, USA), an intracellular calcium marker, for 30 minutes in a CO2 incubator and then washed with a KBM (Keratinocyte Basal Media, KBM-2, Lonza Co. Ltd.) medium three times. Measurement of intracellular calcium was performed in the KBM medium and an increase in intracellular calcium due to NAADP was observed. For the measurement of intracellular calcium, a concentration of calcium was calculated through the collection of images at 530 nm by using a confocal microscopy (Nikon, Japan) equipped with a laser source having an excitation wavelength of 488 nm and an emission wavelength of 530 nm Amounts of changes in calcium measured when epidermal keratinocyte neonatal (5×10^5 cells) was treated with 0.1 nM, 1 nM, 10 nM, 100 nM, 1000 nM of NAADP are illustrated in FIG. 1, respectively.

[2] = tested on: involucrin, keratin 1, and keratin 10 in primarily cultured epidermal keratinocyte neonatal; test: Expression of keratinocyte differentiation markers by western blotting; assay type: cell-based, human
Procedure: An effect of NAADP on promoting cell differentiation was tested by measuring the expression of differentiation markers (involucrin, keratin 1, and keratin 10) generated during the differentiation of the keratinocytes by using a western blotting method.
Primarily cultured epidermal keratinocyte neonatal was put into a culture flask and attached to the bottom thereof, and then cultured for 5 days until the cells grew to cover about 70% to 80% of an area of the bottom by adding NAADP diluted for each concentration and retinol acid as a control group into a culture medium. The cells were harvested and cleaned with phosphate buffered saline (PBS). Next, precipitates obtained by adding 1 ml of a 10 mM tris-HCl (pH 7.4) buffer solution containing 2% sodium dodecyl sulfate (SDS) and 20 mM dithiothreitol (DTT) and being subjected to sonication, boiling, and centrifugation were again suspended in 1 ml of PBS. A content of protein in the suspension was measured and used as a criterion during the evaluation of a degree of cell differentiation. The results of tests performed by using a group treating the epidermal keratinocyte neonatal (5×10^5 cells) with retinol acid (1 μM) as a positive control group and adding each NAADP having different concentration (10 pM to 10 μM) to a low calcium concentration are presented in the following FIG. 2.

[3] = tested on: keratin 1 and keratin 10 in outer skin of hairless mice; test: Induction of keratinocyte differentiation in hairless mouse skin after topical application (keratin 1/keratin 10 immunostaining); assay type: in vivo
Procedure: Hairless mice (SPF/VAF Crl:SKH 1-hr) used in the present tests were purchased from OrientBio (Seongnam, Korea). NAADP, an experiment material of the present invention, used was a product of Sigma-Aldrich Corporation.
Test materials were prepared by dissolving NAADP for each concentration in a solution, in which 1% dimethyl sulfoxide (DMSO) was added to a phosphate buffer solution, and tests were performed by using a method of applying the test materials on right and left portions of the back of a 6-week-old mouse with cotton swabs. The test materials were applied 5 times for each concentration and the applications were performed twice a day at 9:00 a.m. and 7:00 p.m. Animals having the test materials applied for one week were sacrificed by cervical dislocation, and the skin was dissected to prepare a size of 1 cm×1 cm and was then fixed in a 10% formalin solution over a night. A paraffin block was prepared from the fixed tissues to prepare 5 micrometer slices and the slices were dyed with an antibody (Santa Cruz #SC53251) simultaneously identifying keratin 1 and keratin 10 at a dilution ratio of 1:100. Anti-mouse IgG (invitrogen) combined with Alexa 488 was used as a secondary antibody.
A solution, in which 1% DMSO was added to a phosphate buffer solution, was used as a control group and solutions prepared by diluting the solution used as the control group with NAADP in various concentrations were used as a test group.

[4] = in vitro, NAADP having a high concentration

nicotinic acid adenine dinucleotide phosphate [NAADP]
intracellular calcium at high concentration of NAADP [1, 4]: increased
movement of intracellular calcium ([1]; treatment with 1 nM to 100 nM of NAADP, 5×10^5 cells, FIG. 1): induced
expression of differentiation markers (involucrin, keratin 1, keratin 10) ([2]; 10 pM to 10 μM of NAADP, low calcium concentration, cultured 5 days, FIG. 2): differentiation markers were expressed
effect on keratin 1 and keratin 10 relative to the other marker ([2]; 10 pM to 10 μM of NAADP, FIG. 2): better effects
expression of the markers at high concentration of NAADP [2, 4]: decreased
concentration dependence of keratin 1 and keratin 10 increase in vivo ([3]; hairless mouse): increased by depending on the concentration of NAADP
concentration at which an increase in the expression level of the differentiation marker appeared ([3]; twice a day for one week): ≥ 100 nM
expression levels of keratin 1 and keratin 10 in outer skin versus control group ([3]; twice a day for one week, in PBS with 1% DMSO, FIG. 3): increased
